Experimental data taken from ChEMBL document CHEMBL5620413, “Novel pterostilbene derivatives ameliorate heart failure by reducing oxidative stress and inflammation through regulating Nrf2/NF-κB signaling pathway” (Eur J Med Chem, 2023).
Active and inactive are the calls of the source. The calls are words filed in the database; no cut-off is given here.

System: RAW264.7
Assay: Antiinflammatory activity in mouse RAW264.7 cells assessed as decrease in LPS-induced NO production at 10 uM preincubated for 1 hr followed by LPS treatment for 24 hrs by Griess reagent based assay
Format: functional, cell-based
Conditions: time 25.0 hrs

| SMILES | Activity |
| --- | --- |
| COc1cc(/C=C/c2ccc(OCCOc3ccccc3)cc2)c(C2CC(C)=NN2C(C)=O)c(OC)c1 (stereo not drawn) | Active |
| CCCOc1ccc(/C=C/c2cc(OC)cc(OC)c2C2CC(C)=NN2C(C)=O)cc1 (stereo not drawn) | Active |
| COc1cc(/C=C/c2ccc(OCc3ccc(F)cc3)cc2)c(/C=C/C(=O)c2cccc(C)c2)c(OC)c1 | Active |
| COCCCCOc1ccc(/C=C/c2cc(OC)cc(OC)c2/C=C/C(=O)c2cccc(C)c2)cc1 | Active |
| COCCOc1ccc(/C=C/c2cc(OC)cc(OC)c2/C=C/C(=O)c2cccc(OC)c2)cc1 | Active |
| CCCOc1ccc(/C=C/c2cc(OC)cc(OC)c2/C=C/C(=O)c2cccc(C)c2)cc1 | Active |
| CCC(C)Oc1ccc(/C=C/c2cc(OC)cc(OC)c2C2CC(C)=NN2C(C)=O)cc1 (stereo not drawn) | Active |
| COCCCCOc1ccc(/C=C/c2cc(OC)cc(OC)c2C2CC(C)=NN2C(C)=O)cc1 (stereo not drawn) | Active |
| C=CCOc1ccc(/C=C/c2cc(OC)cc(OC)c2/C=C/C(=O)c2cccc(Br)c2)cc1 | Active |
| COCCOc1ccc(/C=C/c2cc(OC)cc(OC)c2/C=C/C(=O)c2ccccc2)cc1 | Active |
| COc1cc(/C=C/c2ccc(OCC3CCCCC3)cc2)c(C2CC(C)=NN2C(C)=O)c(OC)c1 (stereo not drawn) | Active |
| CCCCOc1ccc(/C=C/c2cc(OC)cc(OC)c2/C=C/C(=O)c2cccc(C)c2)cc1 | Active |
| COCCOc1ccc(/C=C/c2cc(OC)cc(OC)c2/C=C/C(=O)c2cccc(C)c2)cc1 | Active |
| CCCCOc1ccc(/C=C/c2cc(OC)cc(OC)c2/C=C/C(=O)c2cccc(Br)c2)cc1 | Active |
| C=CCOc1ccc(/C=C/c2cc(OC)cc(OC)c2/C=C/C(=O)c2cccc(C)c2)cc1 | Active |
| C=CCOc1ccc(/C=C/c2cc(OC)cc(OC)c2/C=C/C(=O)c2cccc(OC)c2)cc1 | Active |
| C=CCOc1ccc(/C=C/c2cc(OC)cc(OC)c2C2CC(C)=NN2C(C)=O)cc1 (stereo not drawn) | Active |
| C=CCOc1ccc(/C=C/c2cc(OC)cc(OC)c2/C=C/C(=O)c2ccccc2)cc1 | Active |
